Assay results from paper PMC2646255 (Journal of medicinal chemistry, 2008).

Assays:
P-gp [1] = details: P-gp knockout mouse brain; cited from earlier work
[2] = monkey, DCPQ 8 mg/kg i.v.
P-gp [3] = details: monkey, DCPQ 8 mg/kg or 16 mg/kg i.v. before [^11C]3
5-HT2A receptor = test: NIMH-PDSP binding screen; details: 10 μM
σ2 receptor = target: T1, σ2 receptor (Rattus norvegicus, UniProt Q5U3Y7); test: NIMH-PDSP binding screen
T1 sequence (Q5U3Y7 1-176): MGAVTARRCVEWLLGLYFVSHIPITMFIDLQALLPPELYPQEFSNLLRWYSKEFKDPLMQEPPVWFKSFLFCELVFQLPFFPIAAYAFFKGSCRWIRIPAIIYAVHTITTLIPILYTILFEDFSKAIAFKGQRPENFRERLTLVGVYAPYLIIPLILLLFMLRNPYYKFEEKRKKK

5-HT2C receptor = test: NIMH-PDSP binding screen; details: 10 μM
σ1 receptor = σ1 receptor (Cavia porcellus, UniProt Q60492); test: NIMH-PDSP binding screen; details: read-out: inhibition of binding
Chain of σ1 receptor (Q60492 whole entry): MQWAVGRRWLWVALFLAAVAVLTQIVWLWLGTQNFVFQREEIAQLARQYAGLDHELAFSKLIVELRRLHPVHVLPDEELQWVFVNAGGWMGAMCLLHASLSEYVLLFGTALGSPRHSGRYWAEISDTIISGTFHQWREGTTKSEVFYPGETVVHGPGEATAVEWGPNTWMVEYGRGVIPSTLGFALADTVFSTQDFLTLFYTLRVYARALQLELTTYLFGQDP

κ-opiate receptor = test: NIMH-PDSP binding screen; details: 10 μM
[4] = type: in vivo, rhesus monkeys (Macaca mulatta); details: 1 mg/kg i.v. at 30 min after [^11C]3, DCPQ-treated monkeys

Compound: CN([11CH3])C(=O)C(CCN1CCC(O)(c2ccc(Cl)cc2)CC1)(c1ccccc1)c1ccccc1 [[^11C]loperamide]
- unchanged radiotracer as share of radioactivity in brain (P-gp [1]): ~ 50%

Compound: Cl.Cl.Cl.O[C@@H](COc1cccc2ncccc12)CN1CCN(C2c3ccccc3C3C(c4ccccc42)C3(Cl)Cl)CC1 (stereo partly drawn) [DCPQ, (2R)-anti-5-{3-[4-(10,11-dichloromethanodibenzo-suber-5-yl)piperazin-1-yl]-2-hydroxypropoxy}quinoline trihydrochloride, reference compound]
- effect on rate at which each radiometabolite emerged in plasma [2]: little effect
- effect on uptake of radioactivity into pituitary (P-gp [3]): no effect

Compound: CNC(=O)C(CCN1CCC(O)(c2ccc(Cl)cc2)CC1)(c1ccccc1)c1ccccc1 [Compound 3, 4-(4-(4-Chlorophenyl)-4-hydroxypiperidin-1-yl)-2,2-diphenyl-N-methyl-butanamide]
- inhibition of binding (5-HT2A receptor): < 50%
- Ki (σ2 receptor; Ki, σ2): < 10 nM
- inhibition at 10 µM (σ2 receptor; read-out: inhibition of binding): > 50%
- inhibition of binding (5-HT2C receptor): < 50%
- inhibition at 10 µM (σ1 receptor): > 50%
- inhibition of binding (κ-opiate receptor): < 50%
- effect on washout of radioactivity from brain [4]: no discernible effect

Compound: CN(C)C(=O)C(CCN1CCC(O)(c2ccc(Cl)cc2)CC1)(c1ccccc1)c1ccccc1 [loperamide, reference compound]
- effect on washout of radioactivity from brain [4]: no discernible effect
